Assay: PFAS levels in serum samples of airport employees (LC/MS/MS)
Details: for Serum level in the first samples, median (range) / Relative composition of PFAS in serum, molar concentration basis / Relative composition of PFAS in serum, weight basis / Serum concentration, molar basis / Serum concentration, weight basis: all 26 airport employees; for Relative composition of PFAS in serum, molar concentration basis / Relative composition of PFAS in serum, weight basis: first serum samples; for Serum concentration, molar basis / Serum concentration, weight basis: median of first serum samples
Description: All 26 employees at the airport were invited for a blood sampling between 11 and 14 September 2018 (i.e., within 11 to 14 d after the termination of contaminated drinking-water exposure). Information on age, home address, employment history, working tasks, and sick leave and vacation days in August and September were collected by questionnaire. In addition, data on the number of glasses of water consumed per day, local fish consumption, and history of blood donation and medication were collected. For female employees, questions about menstruation, pregnancy, and duration of breast-feeding were asked.
The PFAS analysis in serum from the first sampling was immediately performed and personal results were reported to the employees. […] These 17 employees submitted four rounds of blood and first morning urine samples in parallel, at 1-month intervals. In total, there were five rounds of serum sampling (started from September) and four rounds of urine sampling (from October). For modeling of elimination, all samples were reanalyzed in a single batch. We obtained 83 serum samples with a median count of 5 (range: 4–5) samples per employee, and 59 urine samples with median of 4 (range: 1–4) samples per employee. Only one employee provided a single urine sample. The study was approved by the Regional Ethical Review Board in Lund, Sweden. All employees provided written informed consent.
Venous whole blood samples were obtained and were centrifuged for 10 min at 1,500×g at room temperature to isolate the serum on site. The serum samples were collected in 6-mL BD Vacutainer® Plus plastic serum tubes without gel (BD). Urine samples were collected in 13-mL polypropylene screw cap tubes (Sarstedt). Serum and urine samples were frozen at −20°C after sampling and transported to Lund using cold chain logistics. Serum and urine samples were stored at −80°C and −20°C , respectively, before analysis.
The serum samples, QC samples, and chemical blanks were prepared in 96-well plates with 1.5-mL flat-bottom glass vials (Biotech solutions). Serum samples were thawed for 1–2 h and mixed on a vortex shaker for approximately 10 s two times. Once after all samples were thawed and a second time before pipetting the serum to the plate. Before pipetting, the tip was pre-wetted several times, drawing a volume into the tip and dispensing it back into the tube. Sample preparation procedures for serum samples consisted of 25μL serum mixed with 25μL water, 25μL methanol, 25μL isotopically labeled internal standards in 50% acetonitrile (see Table S1), and 100μL acetonitrile. Thereafter, samples were mixed vigorous by shaking for 30 min and centrifuged at 2,600×g for 10 min at room temperature. The supernatant ( 0.2mL ) was transferred to 96-well plates with 0.5-mL conical glass vials (MicroLiter Analytical Supplies) and again centrifuged at 3,000×g for 10 min before analysis. The QC samples and chemical blanks were prepared following the same procedure as the serum samples. The calibration standards were prepared in FBS the same way as the samples, except for the addition of diluted reference standards of all analyzed compounds in 25μL of the methanol solution.
Aliquots of 4μL of the sample were analyzed using LC/MS/MS. For the analysis, a C18 column ( 4μm , 2.1mm i.d.×50mm , Genesis Lightning) was used prior to the injector to filter the mobile phases. The analytical column was an Aquity BEH ( 1.7μm , 2.1mm i.d.×100mm Waters). The mobile phases (A and B) were A: 5 mM ammonium acetate in water:methanol (50:50); and B: methanol. The mobile phase was kept at 0% B for 2.5 min after injection. A gradient was then applied over 11 min to 90% B, where it was then kept for 1.5 min. The column was then conditioned at 0% B for 2 min.

[1] = 1st sampling (September 2018), count 17
[2] = 2nd sampling (October 2018), count 17
[3] = 3rd sampling (November, 2018), count 17
[4] = 4th sampling (December 2018), count 16
[5] = 5th sampling (January 2019), count 16
[6] = employees participated in first blood sampling and repeated blood and urine sampling, N=17
[7] = employees participated in first blood sampling only, N=9, 11-14 d after end of exposure

SMILES	Serum PFAS level, 25 percentile [1]	Serum PFAS level, 75 percentile [1]	Serum PFAS level, Max [1]	Serum PFAS level, Median [1]	Serum PFAS level, Min [1]	Serum PFAS level, 25 percentile [2]	Serum PFAS level, 75 percentile [2]	Serum PFAS level, Max [2]	Serum PFAS level, Median [2]	Serum PFAS level, Min [2]	Serum PFAS level, 25 percentile [3]	Serum PFAS level, 75 percentile [3]	Serum PFAS level, Max [3]	Serum PFAS level, Median [3]	Serum PFAS level, Min [3]	Serum PFAS level, 25 percentile [4]	Serum PFAS level, 75 percentile [4]	Serum PFAS level, Max [4]	Serum PFAS level, Median [4]	Serum PFAS level, Min [4]	other results
O=C(O)C(F)(F)C(F)(F)C(F)(F)C(F)(F)C(F)(F)C(F)(F)F [PFHpA, perfluoroheptanoic acid]	0.45	1.1	2.2	0.53	0.20	0.18	0.83	2.0	0.33	0.07	0.09	0.75	2.0	0.27	0.08	0.09	0.72	1.8	0.15	0.05	Serum PFAS level, 25 percentile [5]: < LOD; Serum PFAS level, 75 percentile [5]: 0.50; Serum PFAS level, Max [5]: 1.4; Serum PFAS level, Median [5]: 0.10; Serum PFAS level, Min [5]: < LOD; Serum level in the first samples, median (range): 0.46 (0.07–2.2) ng/mL; PFAS in first serum sample, median (range) [6]: 0.53 (0.20–2.2) ng/mL; PFAS in first serum sample, median (range) [7]: 0.17 (0.07–1.3) ng/mL; Initial serum PFAS level, max (females (N=7)): 2.2 ng/mL; Initial serum PFAS level, median (females (N=7)): 0.46 ng/mL; Initial serum PFAS level, min (females (N=7)): 0.08 ng/mL; Relative composition of PFAS in serum, molar concentration basis: 0.5%; Relative composition of PFAS in serum, weight basis: 0.4%; Initial serum PFAS level, Max (males (N=19)): 2.0 ng/mL; Initial serum PFAS level, Min (males (N=19)): 0.07 ng/mL; Initial serum PFAS level, median (males (N=19)): 0.45 ng/mL; Serum concentration, molar basis: 0.0013; Serum concentration, weight basis: 0.46
O=S(=O)(O)C(F)(F)C(F)(F)C(F)(F)C(F)(F)C(F)(F)C(F)(F)C(F)(F)F [PFHpS, perfluoroheptane sulfonic acid]	0.96	2.5	6.2	1.6	0.49	0.95	2.1	6.1	1.5	0.45	0.94	1.9	6.3	1.4	0.47	0.93	2.1	5.9	1.5	0.35	Serum PFAS level, 25 percentile [5]: 1.1; Serum PFAS level, 75 percentile [5]: 2.2; Serum PFAS level, Max [5]: 6.2; Serum PFAS level, Median [5]: 1.5; Serum PFAS level, Min [5]: 0.45; Serum level in the first samples, median (range): 1.3 (0.28–6.2) ng/mL; PFAS in first serum sample, median (range) [6]: 1.6 (0.49–6.2) ng/mL; PFAS in first serum sample, median (range) [7]: 0.97 (0.28–1.9) ng/mL; Initial serum PFAS level, max (females (N=7)): 2.2 ng/mL; Initial serum PFAS level, median (females (N=7)): 1.1 ng/mL; Initial serum PFAS level, min (females (N=7)): 0.49 ng/mL; Relative composition of PFAS in serum, molar concentration basis: 1.1%; Relative composition of PFAS in serum, weight basis: 1.2%; Initial serum PFAS level, Max (males (N=19)): 6.2 ng/mL; Initial serum PFAS level, Min (males (N=19)): 0.28 ng/mL; Initial serum PFAS level, median (males (N=19)): 1.4 ng/mL; Serum concentration, molar basis: 0.0029; Serum concentration, weight basis: 1.3
O=C(O)C(F)(F)C(F)(F)C(F)(F)C(F)(F)C(F)(F)F [PFHxA, perfluorohexanoic acid]	0.24	0.48	0.92	0.37	0.16	0.26	0.51	1.2	0.31	0.14	0.27	0.56	1.4	0.34	0.13	0.22	0.46	0.87	0.30	0.08	Serum PFAS level, 25 percentile [5]: 0.21; Serum PFAS level, 75 percentile [5]: 0.52; Serum PFAS level, Max [5]: 1.2; Serum PFAS level, Median [5]: 0.33; Serum PFAS level, Min [5]: 0.11; Serum level in the first samples, median (range): 0.38 (0.16–1.1) ng/mL; PFAS in first serum sample, median (range) [6]: 0.37 (0.16–0.92) ng/mL; PFAS in first serum sample, median (range) [7]: 0.38 (0.23–1.1) ng/mL; Initial serum PFAS level, max (females (N=7)): 0.54 ng/mL; Initial serum PFAS level, median (females (N=7)): 0.24 ng/mL; Initial serum PFAS level, min (females (N=7)): 0.19 ng/mL; Relative composition of PFAS in serum, molar concentration basis: 0.4%; Relative composition of PFAS in serum, weight basis: 0.3%; Initial serum PFAS level, Max (males (N=19)): 1.1 ng/mL; Initial serum PFAS level, Min (males (N=19)): 0.16 ng/mL; Initial serum PFAS level, median (males (N=19)): 0.42 ng/mL; Serum concentration, molar basis: 0.0012; Serum concentration, weight basis: 0.38
